For one data set, the system named is human iNKT cells. Put plainly: Human iNKT‐cell activation by lipid‐pulsed hCD1d C1R cells, IFN‐γ ELISA. It is filed as cell-based. The following applies: compared with α‐GalCer; particularly below 1 ng/mL. As for the experimental part:
To this end, hCD1d‐expressing C1R cells were loaded overnight with serial dilutions of lipids (α‐GalCer, ThrCer, ThrCer 6, and ThrCer 7) and then incubated with human iNKT cells. iNKT‐cell activation was assessed by measuring IFN‐γ production in the supernatant by ELISA.
Concentrations of murine IFN‐γ and IL‐4 in serum were determined using standard sandwich ELISAs using the R4‐6A2 capture Ab for IFN‐γ (eBioscience), and the ID11 capture Ab for IL‐4 (Endogen). Biotinylated XMG1.2 (eBioscience) was used as the detection Ab for IFN‐γ and biotinylated BVD6‐24G2 (eBioscience) was used as the detection Ab for IL‐4. Human IFN‐γ in supernatants was determined using the capture Ab NIB42 (BD Pharmingen) and biotinylated 4S.B3 (BD Pharmingen) as the detection Ab.
Human iNKT‐cells were expanded as described previously 34. […] The presence of IFN‐γ was detected in supernatants by ELISA 12. […] DC maturation was determined by the upregulation of CD86 by flow cytometry on a FACSCalibur with CellQuest software (BD) and analyzed with FlowJo software (Tree Star). For in vivo murine APC phenotype analysis the expression of CD86 or CD40 on CD11c^+ APCs from spleen were determined after 18 h post i.v. of 1 μg lipids on a CyAn cytometer and analyzed with FlowJo software (Tree Star).

In another data set the test system is human DC. Put plainly: Human DC maturation (CD86 upregulation) in coculture with human iNKT cells and lipids. It is filed as cell-based. As to conditions: compared to ThrCer; comparable to α‐GalCer; 40 h. On the procedure:
Figure 1 ThrCer 6 and ThrCer 7 are potent human iNKT‐cell agonists and display a prolonged interaction with the iNKT‐cell TCR when in complex with human CD1d molecules. (A) The structures of α‐GalCer and non‐glycosidic analogs ThrCer, ThrCer 6, and ThrCer 7 are shown. (B) Equilibrium binding and kinetics measurements of a soluble human iNKT‐cell TCR were assessed for hCD1d molecules refolded with α‐GalCer, ThrCer, ThrCer 6, and ThrCer 7. K d values (μM) were calculated from equilibrium binding. (C and D) iNKT‐cell agonists were added to human CD1d C1R cells at various concentrations. After incubating overnight, the degree of iNKT‐cell recognition, assessed either (C) by using a tetrameric human iNKT‐cell TCR by flow cytometry or (D) by the addition of human iNKT cells to cultures and determining the amount of IFN‐γ released in supernatant by ELISA. (E) Human DC maturation was assessed following coculture with human iNKT cells and l μg lipids after 40 h, as determined by CD86 upregulation on DC by flow cytometry. Median fluorescent intensity = MFI. (D and E) Error bars are mean ± SEM (triplicate wells). […]
To this end, hCD1d‐expressing C1R cells were loaded overnight with serial dilutions of lipids (α‐GalCer, ThrCer, ThrCer 6, and ThrCer 7) and then incubated with human iNKT cells. iNKT‐cell activation was assessed by measuring IFN‐γ production in the supernatant by ELISA. […]

For a further data set, the system named is iNKT hybridoma DN32.D3. Put plainly: CD11c+ splenocytes from lipid‐injected Jα18 knockout mice stimulating DN32.D3 (IL‐2 ELISA). Type of data set: in vivo. The following applies: 1 μg i.v.; for Decline in stimulation of DN32.D3 by CD11c+ cells, 64 h compared with 12 h post injection: Jα18 knockout mice, IL‐2. As for the experimental part: Figure 6 Enhanced bioavailability of ThrCer 6 as compared to ThrCer and α‐GalCer. (A) Mouse BMDCs were pulsed for 6 h with 100, 10, or 1 ng/mL of indicated iNKT‐cell agonists. Cells were washed and suspended in tissue culture medium in the absence of iNKT‐cell agonists for up to 24 h. Washed BMDCs were then cocultured with the murine iNKT cell hybridoma DN32.D3. Hundred percentage activation was defined for each iNKT‐cell agonist as the IL‐2 produced by DN32.D3 cocultured with BMDCs that were left with iNKT‐cell agonists throughout the pre coculture period (30 h). Diminished bioavailability is expressed as a percentage of the maximum DN32.D3 activation by each iNKT‐cell agonist. Number of replicates = 4. (B and C) Jα18 knockout mice were injected i.v. with 1 μg of ThrCer 6, α‐GalCer, or vehicle. Twelve hours or 64 h later, CD11c^+‐purified cells were cocultured with 5 × 10^4 DN32.D3 at different ratios. (B) IL‐2 in the supernatant from coculture of DN32.D3 with CD11c^+ cells isolated after 64 h was determined by ELISA. (C) IL‐2 levels of the same culture as percentage of the IL‐2 produced by DN32.D3 coincubated with CD11c^+ cells isolated 12 h after injection of lipids. […] Significance was calculated between α‐GalCer and ThrCer 6. *p < 0.05, **p < 0.01, ***p < 0.001, ****p < 0.0001; Student's t‐test.
To rule out the possibility that the results of these experiments could be modulated by the in vivo killing of CD11c^+ cells by iNKT cells, Jα18 knockout mice, lacking iNKT cells, were injected with ThrCer 6, α‐GalCer or vehicle, and then culled 12 or 64 h later. CD11c^+ cells enriched from the spleens were then coincubated with DN32.D3 for 17 h and IL‐2 production was measured in the supernatant (Fig. 6B and C).
Levels of iNKT‐cell agonists, presented by CD1d on the surface of cells, were assessed by the amount of IL‐2 secreted by iNKT hybridoma DN32.D3 coincubated with the presenting cells for 17–24 h. […] Levels of IL‐2 in the supernatant were determined by ELISA. iNKT‐cell hybridoma DN32.D3 was kindly provided by A. Bendelac 45.
(An ELISA detects its analyte on a solid surface through an enzyme-linked reagent.)

Here are results for three molecules from article PMC4913735, “Non‐glycosidic compounds can stimulate both human and mouse iNKT cells” (European Journal of Immunology, 2016).

In the case of `CCCCCCCCCCCCCCCCCCCCCCCCCC(=O)N[C@@H](CO[C@H]1CC[C@H](O)[C@H](O)[C@H]1O)[C@H](O)[C@H](O)CCCCCCCCCCCCCC` [ThrCer 6], the “Activation of human iNKT cells (IFN‐γ in supernatant)” value in the data set with human iNKT cells is reported as “greater activation of human iNKT cells”. Further, the “Human DC maturation (CD86 upregulation)” value with human DC is reported as “improved ability”. The “Decline in stimulation of DN32.D3 by CD11c+ cells, 64 h compared with 12 h post injection” value in the data set with iNKT hybridoma DN32.D3 is given as “less than 50%”. For the same molecule, the “Activation of DN32.D3 by splenic CD11c+ cells 64 h after in vivo injection” value in the data set with iNKT hybridoma DN32.D3 (compared with α‐GalCer‐injected mice) is on record as “more potent activators of DN32.D3 cells”.
In the case of `CCCCCCCCCCCCCCCCCCCCCCCCCC(=O)NC(COC1CCCC(O)C(O)C1O)C(O)C(O)CCCCCCCCCCCCCC` (stereo not shown) [ThrCer 7], in the data set on human iNKT cells, the “Activation of human iNKT cells (IFN‐γ in supernatant)” value was “greater activation of human iNKT cells”. Moreover, the “Human DC maturation (CD86 upregulation)” value with human DC was “improved ability”.
With `CCCCCCCCCCCCCCCCCCCCCCCCCC(=O)N[C@@H](CO[C@H]1O[C@H](CO)[C@H](O)[C@H](O)[C@H]1O)[C@H](O)[C@H](O)CCCCCCCCCCCCCC` [α‐GalCer, α‐galactosylceramide, reference compound], the “Decline in stimulation of DN32.D3 by CD11c+ cells, 64 h compared with 12 h post injection” value with iNKT hybridoma DN32.D3 is reported as “more than 90%”.
